Measurements reported in patent publication US12195437B2, “Lipophenolic flavonoid derivatives useful to reduce carbonyl and oxidative stresses (COS)” (Centre National de la Recherche Scientifique (CNRS), priority 2018, dated 2025).
“Also recorded” adds a separate entry of the source.

Legend:
Format in all cases: cell-based
[1] = Cytotoxicity of lipophenols on ARPE-19 cells (MTT); conditions: human, ARPE-19 cells (retinal pigment epithelium), tested 0-160 μM, read-out: CC50 (cytotoxic concentration 50)
Method: (§1) Cell viability was determined by MTT colorimetric assay. Cells were incubated for 2 h with MTT reagent (0.5 mg/mL). During this incubation time, dehydrogenases of living cells reduced MTT to insoluble purple formazan, which was then dissolved in DMSO. The absorbance at 570 nm and 655 nm of individual wells was measured using a microplate reader (BioRad 550). The percentage of viable cells was calculated as [(OD570 sample−OD655 sample)/(OD570 control−OD655 control)]×100%.
ARPE-19 cells were plated into 96-well plates (4×10^4 cells/well) and cultured for 24 h to reach confluence before lipophenol treatment. […] Control cells were incubated with DMSO (0.2%). The viability of the cells was determined using a MTT colorimetric assay. All samples are expressed as percentage of viability compared to non-treated control cells (normalized at 100% survival).
Results on the measurement of lipophenol toxicity will be discussed in % cell survival at a given lipophenol concentration compared to untreated cells. […] Any concentration of lipophenol resulting in cell survival of less than 5% (zero survival) will be considered a highly toxic concentration.

[2] = system: ARPE-19 cells; experiment: Protection of lipophenols against all-trans-retinal toxicity (anti-carbonyl stress activity, MTT); conditions: trans-retinal 15 μM
Method: (§2) ARPE-19 cells (cells from the retinal pigment epithelium) were obtained from ATCC, and were grown following the instructions in Dulbecco's Modified Eagle's Medium (DMEM)/Ham F12 (GIBCO) containing 10% v/v fetal bovine serum (FBS) and 1% v/v penicillin/streptomycin under a humidified air (95%)/CO2 (5%) atmosphere at 37° C. For experimental cell seeding and sub-culturing, cells were dissociated with 0.25% trypsin-EDTA, re-suspended in the culture medium and then plated at 1-3×10^5 cells/mL.
as §1
ARPE-19 cells were plated into 96-well plates (4×10^4 cells/well) and cultured for 24 h to reach confluence before lipophenol treatment. The cell cultures were treated with serum free medium containing lipophenols at different concentrations (0-80 μM) for 1 h. Then all-trans-retinal was added to a final concentration of 15 μM for 4 h, before rinsing with medium. Control cells were incubated with DMSO (0.2%)±all-trans-retinal. The cell viability was determined 16-20 h later using a MTT colorimetric assay. All samples are expressed as percentage of viability compared to non-treated and exposed to all-trans-retinal control cells. Non-treated and non-exposed to all-trans-retinal control cells are normalized at 100% survival.
The results on the measurement of anti-carbonyl stress activity will be discussed in % cell survival gain compared to cells stressed by trans-retinal (at 15 μM) and not treated with lipophenols. Any survival gain greater than +5% will be considered as a proven anti-carbonyl stress activity.

[3] = system: ARPE-19 cells; experiment: Protection of lipophenols against ROS production (DCFDA probe, H2O2); conditions: 80 μM lipophenol, H2O2 600 μM
Method: as §2
Reactive oxygen species (ROS) were measured in ARPE-19 cells with the probe DCFDA. The cell permeant reagent DCFDA is deacetylated by cellular esterases to […], which can be oxidized by ROS into the fluorophore 2′,7′-dichlorofluorescein (DCF). ARPE-19 cells were plated into black, opaque bottom 96-well plates (4×10^4 cells/well) and cultured for 24 h to reach confluence before drug treatment. The cell cultures were incubated with 2 μM of DCFDA for 45 min in DMEM/F12 medium without phenol red+1% FBS. The cells were rinsed and incubated with medium containing lipophenols at different concentrations (0-80 μM) for 1 h. Then H2O2 was added to a final concentration of 600 μM for 4 h, followed by the measurement of DCF production by fluorescence spectroscopy with excitation wavelength at 485 nm and emission wavelength at 535 nm. Control cells were incubated with DMSO (0.2%)±DCFDA±H2O2. All samples are expressed as percentage of ROS production compared to non-oxidized control cells (normalized at 100% of ROS production).
The lowest percentages of increase will therefore be representative of the most protective derivatives.

[4] = system: ARPE-19 cells; experiment: Protection of lipophenols against photoactivated A2E toxicity (MTT); conditions: from 40 μM lipophenol (plateau), A2E 20 μM, blue light
Method: as §2, §1
ARPE-19 cells were plated into 96-well plates (4×10^4 cells/well) and cultured for 24 h to reach confluence before lipophenol treatment. The cell cultures were treated with serum free DMEM/F12 medium without phenol red containing lipophenols at different concentrations (0-80 μM) for 1 h. Then A2E was added to a final concentration of 20 μM for 6 h, before rinsing with medium. Control cells were incubated with DMSO (0.2%)+A2E. Cells were exposed to intense blue light (4600 LUX) for 30 min to induce phototoxicity of A2E and incubated at 37° C. The cell viability was determined 16-20 h later using a MTT colorimetric assay. All samples are expressed as percentage of viability compared to non-treated and exposed to A2E control cells. Non-treated and non-exposed to A2E control cells are normalized at 100% survival.
Photoactivation of A2E leads to its oxidation and can generate cytotoxic derivatives, in particular carbonyl derivatives responsible for carbonyl stress. Results on lipophenol protection against photoactivated A2E toxicity will be discussed in % cell survival gain compared to cells stressed by A2E and not treated by lipophenols. This additional evaluation was not performed for all synthesized lipophenolic derivatives but only a selection of them to discuss the results obtained.

SMILES | CC50 at 24 h [1] | cell survival gain (anti-carbonyl stress activity) ([2]; 80 μM lipophenol, compared to stressed untreated cells) | gain of % of ROS production compared to non-stressed cells [3] | anti-carbonyl stress activity (in words) ([2]; up to 80 μM lipophenol) | cell survival gain against photoactivated A2E [4]
CCCCC/C=C\C/C=C\CCCCCCCC(=O)O[C@H]1Cc2c(O)cc(O)cc2O[C@@H]1c1ccc(O)c(O)c1 [C-3LA, (9Z,12Z)-(2R,3S)-2-(3,4-dihydroxyphenyl)-5,7-dihydroxy-chroman-3-yl octadeca-9,12-dienoate] | < 160 µM | +11% | +24% | – | –
O=c1c(O)c(-c2ccc(O)c(O)c2)oc2cc(O)cc(O)c12 [quercetin, reference compound] | ~120 µM | – | – | did not show anti-carbonyl stress potency; also recorded: no cellular protection | +36%
